Patent US7452388B2, “Compositions comprising dimeric or oligomeric ferrocenes” (Innospec Limited, priority 2000, dated 2008)
Like-named read-outs stand apart in the source and are kept apart here.

Legend:
[1] = Solubility testing in toluene at −30° C.
Source text: Solubility testing was undertaken using the estimate of Fe content from C/H/N analysis. […] This procedure assumes the products below to contain substantially only C, H and Fe. Masses of product(s) sufficient to provide the required concentration of iron as condensation products were weighed into screw-cap vials and made up to 10.00 g with toluene. The samples were capped, shaken or swirled until homogenous then sealed using Parafilm™. The vials were then kept in an ethylene glycol/water filled bath held at −30° C. and periodically inspected for the appearance of solids or separation of liquid phases. After at least one week solids were separated by rapid filtration and soluble products isolated by removal of solvent under vacuum. Following analysis of the solids, maximum and minimum solubilities were estimated from the mass balance.

[2] = Viscosity of 2.5 wt % iron solutions in toluene (Bohlin CVO rheometer); format: physicochemical; details: toluene solution at 2.5 wt % Fe
Description: Viscosities of 2.5 wt % iron solutions were determined using a Bohlin Instruments CVO rheometer using a 4° 40 mm cone and plate at shear rates of either 2 Pa or 0.5 Pa.

[3] = Fuel stability, in-house Test Method 1; details: additive 20 ppm iron
[4] = toluene, −30° C., at least one week

| Compound | Solubility at −30° C., 2.5 wt % Fe (appearance) [1] | Solubility at −30° C., 5.0 wt % Fe (appearance) [1] | Viscosity at −30° C. (mPas) [2] [mPas] | Solubility at −30° C., 2.5 wt % Fe (appearance) [1, 4] | further results |
| --- | --- | --- | --- | --- | --- |
| 1,1-diferrocenyl 2-ethylhexane [Compound 4] | Clear | Clear | – | – | – |
| 1,1-diferrocenyl cyclohexane [Compound 11] | – | – | 4.8 | Clear | Solubility of Fe as product ([1]; toluene, −30° C.): ~4.9 wt %; Solubility at −30° C., 5.0 wt % Fe (appearance) [1, 4]: Powder |
| 1,1-diferrocenylpentane [Compound 7] | Clear | Clear | 5.4 | – | – |
| CC(C)C([c-]1cccc1)[c-]1cccc1.[Fe+2].[Fe+2].c1cc[cH-]c1.c1cc[cH-]c1 [Compound 5, 1,1-diferrocenyl-2-methyl propane] | – | – | – | Clear | – |
| [Fe+2].[Fe+2].c1cc[cH-]c1.c1cc[cH-]c1.c1ccc(CC([c-]2cccc2)[c-]2cccc2)cc1 [Compound 9, 1,1-diferrocenyl phenyl methane] | – | – | 4.3 | Clear | Solubility at −30° C., 5.0 wt % Fe (appearance) [1, 4]: Clear |
| O=C1CCCC(=O)C1 [Compound 12, 1,3-Cyclohexanedione] | Clear | Crystals | – | – | Solubility of Fe as product [1]: 3.6 to 4.1 wt % by mass balance |
| CC(=O)CCC(C)=O [Compound 15, Acetonyl acetone] | Powder | Powder | – | – | – |
| Iron tris(2-ethylhexanoate) [Octanoate] | – | – | – | – | fuel stability (conclusion) [3]: markedly lower stability |
